Laboratory results: article PMC9905294 (Biochemistry, 2023)
Values after ≈ are worked out from the molar mass of the structure shown. Where two headings read alike, the source gives them in different places.

Key:
Mtb mc^26230 = test: MIC determination of compounds alone; format: cell-based, Mycobacterium tuberculosis; settings: for MIC: Mycobacterium tuberculosis, read-out: MIC mc^26230; for MIC mc^26230: compound alone, duplicate
AAC(2’)-Ic = AAC(2’)-Ic (Mycobacterium tuberculosis, UniProt P9WQG9); test: Inhibitor selectivity, NEO acetylation assay; format: biochemical; settings: concentrations up to 200 μM
Sequence of AAC(2’)-Ic (P9WQG9 whole entry): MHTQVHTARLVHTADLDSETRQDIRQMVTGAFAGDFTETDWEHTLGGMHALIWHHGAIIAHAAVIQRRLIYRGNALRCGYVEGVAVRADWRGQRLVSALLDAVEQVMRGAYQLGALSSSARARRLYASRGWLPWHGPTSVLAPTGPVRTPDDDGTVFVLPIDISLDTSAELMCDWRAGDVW

Mtb Eis [1] = target: T1, Mtb Eis (Mycobacterium tuberculosis, UniProt P9WFK7); test: Eis acetylation assay; format: biochemical
T1 sequence (P9WFK7 whole entry): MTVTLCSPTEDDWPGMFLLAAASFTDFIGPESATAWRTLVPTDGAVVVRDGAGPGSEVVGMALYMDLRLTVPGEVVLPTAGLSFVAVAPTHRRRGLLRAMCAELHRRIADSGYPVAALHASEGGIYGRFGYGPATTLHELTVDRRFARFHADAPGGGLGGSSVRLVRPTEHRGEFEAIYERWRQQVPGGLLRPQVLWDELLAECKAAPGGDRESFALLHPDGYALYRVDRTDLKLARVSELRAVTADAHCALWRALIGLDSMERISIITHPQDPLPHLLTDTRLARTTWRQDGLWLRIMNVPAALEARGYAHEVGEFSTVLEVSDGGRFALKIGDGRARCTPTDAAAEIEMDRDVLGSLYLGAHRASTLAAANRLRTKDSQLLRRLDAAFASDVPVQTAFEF

Mtb Eis [2] = target: T1, Mtb Eis; format: biochemical; settings: for mode of inhibition with respect to KAN: Michaelis-Menten analysis of KAN acetylation by Eis
AAC(3)-IV = AAC(3)-IV (Salmonella sp, UniProt P08988); format: biochemical; settings: concentrations up to 200 μM
Sequence of AAC(3)-IV (P08988 whole entry): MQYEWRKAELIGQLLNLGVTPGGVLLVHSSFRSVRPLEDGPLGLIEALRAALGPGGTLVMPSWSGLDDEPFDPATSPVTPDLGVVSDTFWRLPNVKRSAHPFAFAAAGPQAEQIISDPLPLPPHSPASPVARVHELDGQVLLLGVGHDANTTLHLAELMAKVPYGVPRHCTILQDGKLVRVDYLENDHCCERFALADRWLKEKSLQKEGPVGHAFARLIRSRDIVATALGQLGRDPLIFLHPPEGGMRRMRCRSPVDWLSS

AAC(6’)-Ie/APH(2”)-Ia = AAC(6’)-Ie/APH(2”)-Ia (Staphylococcus aureus, UniProt P0A0C1); test: Inhibitor selectivity, NEO acetylation assay; format: biochemical; settings: concentrations up to 200 μM
Sequence of AAC(6’)-Ie/APH(2”)-Ia (P0A0C1 whole entry): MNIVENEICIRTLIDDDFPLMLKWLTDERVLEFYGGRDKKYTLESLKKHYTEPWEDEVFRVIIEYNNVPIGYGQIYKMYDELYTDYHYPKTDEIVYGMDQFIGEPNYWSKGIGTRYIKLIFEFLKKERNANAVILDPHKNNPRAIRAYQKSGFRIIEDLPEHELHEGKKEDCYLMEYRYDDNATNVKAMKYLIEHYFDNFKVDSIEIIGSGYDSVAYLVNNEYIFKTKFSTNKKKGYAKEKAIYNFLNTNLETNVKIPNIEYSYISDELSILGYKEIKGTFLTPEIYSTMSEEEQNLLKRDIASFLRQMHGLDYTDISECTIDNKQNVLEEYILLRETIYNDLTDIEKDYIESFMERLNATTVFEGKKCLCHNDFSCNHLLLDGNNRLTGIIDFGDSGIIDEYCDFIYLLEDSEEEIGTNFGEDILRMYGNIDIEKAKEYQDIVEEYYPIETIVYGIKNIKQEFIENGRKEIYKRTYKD

Mtb Eis [3] = target: T1, Mtb Eis; test: Screening acetylation assay with NEO as substrate; format: biochemical; settings: conditions of the original high-throughput assay; compound 20 μM, NEO 100 μM
[4] = with respect to KAN, global nonlinear regression fit
[5] = Eis 0.25 μM, KAN 100 μM, AcCoA 0.5 mM, Tris-HCl pH 8.0, triplicate

Structure (SMILES)	MIC (Mtb mc^26230) [µM]	inhibition of NEO acetylation by AAC(2’)-Ic (AAC(2’)-Ic)	IC50 (Mtb Eis [1]) [µM]	Ki (Mtb Eis [2]) [µM]	Ki,u (equilibrium constant for inhibitor binding to enzyme-substrate complex) (Mtb Eis [2]; [4])	inhibition of NEO acetylation by AAC(3)-IV (AAC(3)-IV)	inhibition of NEO acetylation by AAC(6’)-Ie (AAC(6’)-Ie/APH(2”)-Ia)	MIC mc^26230 (Mtb mc^26230) [µM]	mode of inhibition with respect to KAN (Mtb Eis [2])	further results
OC(c1cc(C(F)(F)F)nc2c(C(F)(F)F)cccc12)C1CCCCN1 (stereo not shown) [Mefloquine (MEF), Mefloquine]	16 (≈ 6.05 µg/mL)	not inhibited	4.2 ± 0.8	7.2 ± 1.1	5.9 ± 1.3 (p = 0.0002) μM	not inhibited	not inhibited			
NC(N)=NN=Cc1ccc(Cl)cc1 [Compound 1]								> 64	competitive inhibition	IC50 (Mtb Eis [1]; [5]): 10 ± 3 µM; fold more potent than PRO as an Eis inhibitor (Mtb Eis [1]; ratio of IC50 values vs PRO): 3 fold; Ki (Mtb Eis [2]; read-out: Ki (equilibrium constant for inhibitor binding to free enzyme), with respect to KAN, global nonlinear regression fit): 17 ± 2.4 µM
CCN(CC)CCCC(C)Nc1ccnc2cc(Cl)ccc12 (stereo not shown) [Chloroquine (CHQ), Chloroquine]	64 (≈ 20.5 µg/mL)	not inhibited	20 ± 2	12.3 ± 2.7	35 ± 20 (p = 0.1) μM	not inhibited	not inhibited		competitive	
NC[C@H]1O[C@H](O[C@H]2[C@H](O)[C@@H](O[C@H]3O[C@H](CO)[C@@H](O)[C@H](N)[C@H]3O)[C@H](N)C[C@@H]2N)[C@H](O)[C@@H](O)[C@@H]1O [Kanamycin (KAN), Kanamycin]								0.17 (≈ 0.0824 µg/mL)		
Fc1cccc(NN=Cc2ccc(Cl)cc2)c1 [Compound 2]					104 ± 8 µM			> 64	uncompetitive inhibition	IC50 (Mtb Eis [1]; [5]): 160 ± 49 µM; IC50 fold higher than that of PRO (Mtb Eis [1]; ratio of IC50 values vs PRO): 5 fold
CN1CCCC(n2nc(Cc3ccc(Cl)cc3)c3ccccc3c2=O)CC1 (stereo not shown) [Azelastine (AZL), Azelastine]	32 (≈ 12.2 µg/mL)	not inhibited	0.79 ± 0.08	0.24 ± 0.05	0.9 ± 0.5 (p = 0.08) μM	not inhibited	not inhibited		competitive	
[H]/N=C(\N/C(=N/[H])Nc1ccc(Cl)cc1)NC(C)C [Proguanil (PRO), Proguanil]	> 64	not inhibited	30 ± 7	28 ± 10		not inhibited	not inhibited			inhibition of NEO acetylation activity of Mtb Eis (Mtb Eis [3]): detectable inhibition
NNC(=O)c1ccncc1 [Isoniazid (INH), Isoniazid]	≤ 3.6									
[H]/N=C(\N/C(=N/[H])NCCCCCCNC(=N)NC(=N)Nc1ccc(Cl)cc1)Nc1ccc(Cl)cc1 [Chlorhexidine (CHX), Chlorhexidine]	≤ 0.03									
COc1ccc(C(CN(C)C)C2(O)CCCCC2)cc1 (stereo not shown) [Venlafaxine (VEN), Venlafaxine]	> 64		134 ± 21							inhibition of NEO acetylation activity of Mtb Eis (Mtb Eis [3]): detectable inhibition
Fc1ccc(NN=Cc2ccc(Cl)cc2)cc1 [Compound 3]								> 64		IC50 (Mtb Eis [1]; [5]): > 200 µM; IC50 fold higher than that of PRO (Mtb Eis [1]; ratio of IC50 values vs PRO): > 7 fold
